Test system: 4T1 murine mammary carcinoma
Assay: Orthotopic 4T1 murine mammary carcinoma model, lung metastasis
Assay type: in vivo, BALB/C mice
Procedure: 4T1 cells are cultured with RPMI-1640 culture solution, wherein the concentration of added fetal calf serum is 10%, a penicillin/streptomycin double-antibody is diluted in the culture solution based on the ratio of 1:100, and the cells are cultured in a thermostatic incubator which contains 5% CO2 and has a saturation temperature of 37° C. The cells are subjected to passage every other 2-3 days based on the ratio of 1:3-1:5. BALB/C mice are randomly divided into 7 groups, and a fourth fat pad of the breast is inoculated with 1×10^5 4 T1 cells. Then 20 mg/kg, 40 mg/kg and 80 mg/kg […] and 4 mg/kg dalteparin are injected to each group respectively. Mice were observed daily. Body weights and tumor volumes were recorded three times per week during the experiment. Breast tumors are removed after continuous administration for 12 days, and then 4 mg/kg cisplatin is […] to each group from the 13th thy, once in every four days. On the 30th day, anesthesia is conducted, the mice are sacrificed, lungs and spleens are taken out, washed and weighted. Photos were taken and lung samples were fixed in 10% neutral for metastatic nodule count and HE staining

[1] = cisplatin alone or combined with dHG10092, compared with negative control group

N.N.[Cl][Pt][Cl] [Cisplatin]
body weight (cisplatin 4 mg/kg, alone or in a combination): can cause weight reduction | lung weight [1]: much lower | spleen weight [1]: much lower | lung tumor area range (HE staining) (cisplatin independently or with dHG10092): remarkably reduce the lung tumor area range
